Patent US20120225862A1, “HETEROARYL BENZAMIDES, COMPOSITIONS AND METHODS OF USE” (AUCKLAND UNIVSERVICES LIMITED, priority 2009, published 2012)

Experiments:
RCC4 = assay: XTT IC50 / viability assay, RCC4 cells; format: cell-based, human; details: Homo sapiens, RCC4, 96 h; XTT assay, four days
Protocol: (§1) RCC4 parental and RCC4 with VHL-reintroduced (RCC4/VHL), SN12C and SN12C-CSCG-VHL shRNA were maintained in DMEM supplemented with 10% FCS.
(§2) IC50 values for compounds were determined by XTT assay. For 2,3-bis[2-methoxy-4-nitro-5-sulfophenyl]-2H-tetrazolium-5-carboxanilide inner salt (XTT) assays, five thousand cells were plated in 96-well plates. The next day, vehicle or drug was added to each well and incubated for four days. Media was aspirated and phenol red-free medium with 0.3 mg/mL XTT and 2.65 ug/mL N-methyl dibenzopyrazine methyl sulfate was added. This was incubated at 37° C. for 1-2 hours and absorbance was read at 450 nm. IC50 values for each compound were calculated using linear interpolation.
(§3) For 2,3-bis[2-methoxy-4-nitro-5-sulfophenyl]-2H-tetrazolium-5-carboxanilide (XTT) assays, five thousand cells were plated in 96-well plates. The next day, vehicle (DMSO) or drug was added by serial dilution. Four days later, media were aspirated, XTT solution (0.3 mg/ml of XTT (Sigma), 2.65 mg/ml N-methyl dibenxopyrazine methyl sulfate (Simga) in phenol red-free media) was added, and the plates were incubated at 37° C. for 1-2 hours. Metabolism of XTT was quantified by measuring the absorbance at 450 nm. IC50s were calculated using linear interpolation. For clonogenic survival assays, three hundred cells were plated per 60 mm tissue culture dish. The cells were allowed to attach overnight and then treated with vehicle or drug for 14 days. Colonies were fixed and stained with crystal violet (0.1% crystal violet in 95% ethanol). All conditions were measured in triplicate and each experiment was done in duplicate or triplicate. To determine necrosis, cells were treated with drug for a given time point. Media and cells were collected, centrifugated, and resuspended in 0.4% trypan blue (Invitrogen). Live and dead cells were counted on a hematocytometer.

RCC4/VHL = assay: XTT IC50 assay, selectivity RCC4 versus RCC4 with VHL-reintroduced; format: cell-based, human; details: selectivity ratio of XTT IC50 values, RCC4 vs RCC4/VHL
Protocol: as §1, §2, §3

COc1ccc(S(=O)(=O)NCc2ccc(C(=O)Nc3cccnc3)cc2)cc1 [Example 33, 4-((4-Methoxyphenylsulfonamido)methyl)-N-(pyridin-3-yl)benzamide]
IC50 (RCC4): 1 to 20 µM
Ratio (RCC4:RCC/VHL) (RCC4/VHL): b (“b” reflects from 10 to 100)

CCCCOc1ccc(S(=O)(=O)NCc2ccc(C(=O)Nc3cccnc3)cc2)cc1 [Example 34, 4-((4-Butoxyphenylsulfonamido)methyl)-N-(pyridin-3-yl)benzamide]
IC50 (RCC4): < 1 µM
Ratio (RCC4:RCC/VHL) (RCC4/VHL): b (“b” reflects from 10 to 100)

O=C(Nc1cccnc1)c1ccc(CNS(=O)(=O)c2ccc(Oc3ccccc3)cc2)cc1 [Example 35, 4-((4-Phenoxyphenylsulfonamido)methyl)-N-(pyridin-3-yl)benzamide]
IC50 (RCC4): 1 to 20 µM
Ratio (RCC4:RCC/VHL) (RCC4/VHL): b (“b” reflects from 10 to 100)

Cc1ccc(S(=O)(=O)NCc2ccc(C(=O)Nc3cccnc3)cc2)cc1 [Example 36, 4-((4-Methylphenylsulfonamido)methyl)-N-(pyridin-3-yl)benzamide]
IC50 (RCC4): 1 to 20 µM
Ratio (RCC4:RCC/VHL) (RCC4/VHL): b (“b” reflects from 10 to 100)

CCCc1ccc(S(=O)(=O)NCc2ccc(C(=O)Nc3cccnc3)cc2)cc1 [Example 37, 4-((4-Propylphenylsulfonamido)methyl)-N-(pyridin-3-yl)benzamide]
IC50 (RCC4): < 1 µM
Ratio (RCC4:RCC/VHL) (RCC4/VHL): b (“b” reflects from 10 to 100)

CC(=O)Nc1ccc(S(=O)(=O)NCc2ccc(C(=O)Nc3cccnc3)cc2)cc1 [Example 42, 4-((4-Acetamidophenylsulfonamido)methyl)-N-(pyridin-3-yl)benzamide]
IC50 (RCC4): 1 to 20 µM
Ratio (RCC4:RCC/VHL) (RCC4/VHL): a (“a” reflects a ratio of RCC4/RCC-VHL+ ranging from 1 to 10)

O=C(Nc1cccnc1)c1ccc(CNS(=O)(=O)c2ccc(F)cc2)cc1 [Example 43, 4-((4-Fluorophenylsulfonamido)methyl)-N-(pyridin-3-yl)benzamide]
IC50 (RCC4): 1 to 20 µM
Ratio (RCC4:RCC/VHL) (RCC4/VHL): a (“a” reflects a ratio of RCC4/RCC-VHL+ ranging from 1 to 10)

O=C(Nc1cccnc1)c1ccc(CNS(=O)(=O)c2ccc(Cl)cc2)cc1 [Example 44, 4-((4-Chlorophenylsulfonamido)methyl)-N-(pyridin-3-yl)benzamide]
IC50 (RCC4): 1 to 20 µM
Ratio (RCC4:RCC/VHL) (RCC4/VHL): b (“b” reflects from 10 to 100)

O=C(Nc1cccnc1)c1ccc(CNS(=O)(=O)c2ccc(Br)cc2)cc1 [Example 45, 4-((4-Bromophenylsulfonamido)methyl)-N-(pyridin-3-yl)benzamide]
IC50 (RCC4): 1 to 20 µM
Ratio (RCC4:RCC/VHL) (RCC4/VHL): b (“b” reflects from 10 to 100)

O=C(Nc1cccnc1)c1ccc(CNS(=O)(=O)c2ccc(OC(F)(F)F)cc2)cc1 [Example 46, N-(Pyridin-3-yl)-4-((4-(trifluoromethoxy)phenylsulfonamido)methyl)benzamide]
IC50 (RCC4): 1 to 20 µM
Ratio (RCC4:RCC/VHL) (RCC4/VHL): b (“b” reflects from 10 to 100)

CC(=O)c1ccc(S(=O)(=O)NCc2ccc(C(=O)Nc3cccnc3)cc2)cc1 [Example 48, 4-((4-Acetylphenylsulfonamido)methyl)-N-(pyridin-3-yl)benzamide]
IC50 (RCC4): < 1 µM
Ratio (RCC4:RCC/VHL) (RCC4/VHL): b (“b” reflects from 10 to 100)

O=C(Nc1cccnc1)c1ccc(CNS(=O)(=O)c2ccc(C(F)(F)F)cc2)cc1 [Example 49, N-(Pyridin-3-yl)-4-((4-(trifluoromethyl)phenylsulfonamido)methyl)benzamide]
IC50 (RCC4): 1 to 20 µM
Ratio (RCC4:RCC/VHL) (RCC4/VHL): a (“a” reflects a ratio of RCC4/RCC-VHL+ ranging from 1 to 10)

N#Cc1ccc(S(=O)(=O)NCc2ccc(C(=O)Nc3cccnc3)cc2)cc1 [Example 50, 4-((4-Cyanophenylsulfonamido)methyl)-N-(pyridin-3-yl)benzamide]
IC50 (RCC4): 1 to 20 µM
Ratio (RCC4:RCC/VHL) (RCC4/VHL): a (“a” reflects a ratio of RCC4/RCC-VHL+ ranging from 1 to 10)

COc1ccc(-c2ccc(S(=O)(=O)NCc3ccc(C(=O)Nc4cccnc4)cc3)cc2)cc1 [Example 52, 4-({[(4′-Methoxy[1,1′-biphenyl]-4-yl)sulfonyl]amino}methyl)-N-(3-pyridinyl)benzamide]
IC50 (RCC4): 1 to 20 µM
Ratio (RCC4:RCC/VHL) (RCC4/VHL): b (“b” reflects from 10 to 100)

Cc1ccc(-c2ccc(S(=O)(=O)NCc3ccc(C(=O)Nc4cccnc4)cc3)cc2)cc1 [Example 53, 4-({[(4′-Methyl[1,1′-biphenyl]-4-yl)sulfonyl]amino}methyl)-N-(3-pyridinyl)benzamide]
IC50 (RCC4): 1 to 20 µM
Ratio (RCC4:RCC/VHL) (RCC4/VHL): a (“a” reflects a ratio of RCC4/RCC-VHL+ ranging from 1 to 10)

O=C(Nc1cccnc1)c1ccc(CNS(=O)(=O)c2ccc(-c3ccccc3)cc2)cc1 [Example 54, 4-((Biphenyl-4-ylsulfonamido)methyl)-N-(pyridin-3-yl)benzamide]
IC50 (RCC4): 1 to 20 µM
Ratio (RCC4:RCC/VHL) (RCC4/VHL): b (“b” reflects from 10 to 100)

O=C(Nc1cccnc1)c1ccc(CNS(=O)(=O)c2ccc(-c3ccc(F)cc3)cc2)cc1 [Example 55, 4-({[(4′-Fluoro[1,1′-biphenyl]-4-yl)sulfonyl]amino}methyl)-N-(3-pyridinyl)benzamide]
IC50 (RCC4): < 1 µM
Ratio (RCC4:RCC/VHL) (RCC4/VHL): b (“b” reflects from 10 to 100)

O=C(Nc1cccnc1)c1ccc(CNS(=O)(=O)c2ccc(-c3ccc(Cl)cc3)cc2)cc1 [Example 56, 4-({[(4′-Chloro[1,1′-biphenyl]-4-yl)sulfonyl]amino}methyl)-N-(3-pyridinyl)benzamide]
IC50 (RCC4): 1 to 20 µM
Ratio (RCC4:RCC/VHL) (RCC4/VHL): b (“b” reflects from 10 to 100)

O=C(Nc1cccnc1)c1ccc(CNS(=O)(=O)c2ccc(-c3ncccn3)cc2)cc1 [Example 57, 4-[({[4-(2-Pyrimidinyl)phenyl]sulfonyl}amino)methyl]-N-(3-pyridinyl)-benzamide]
IC50 (RCC4): < 1 µM
Ratio (RCC4:RCC/VHL) (RCC4/VHL): b (“b” reflects from 10 to 100)

O=C(Nc1cccnc1)c1ccc(CNS(=O)(=O)c2ccc(-n3cccn3)cc2)cc1 [Example 58, 4-[({[4-(1H-Pyrazol-1-yl)phenyl]sulfonyl}amino)methyl]-N-(3-pyridinyl)benzamide]
IC50 (RCC4): 1 to 20 µM
Ratio (RCC4:RCC/VHL) (RCC4/VHL): a (“a” reflects a ratio of RCC4/RCC-VHL+ ranging from 1 to 10)

Cc1nc(-c2ccc(S(=O)(=O)NCc3ccc(C(=O)Nc4cccnc4)cc3)cc2)cs1 [Example 59, 4-[({[4-(2-Methyl-1,3-thiazol-4-yl)phenyl]sulfonyl}amino)methyl]-N-(3-pyridinyl)benzamide]
IC50 (RCC4): 1 to 20 µM
Ratio (RCC4:RCC/VHL) (RCC4/VHL): b (“b” reflects from 10 to 100)

O=C(Nc1cccnc1)c1ccc(CNS(=O)(=O)c2ccc(-c3cnco3)cc2)cc1 [Example 60, 4-[({[4-(1,3-Oxazol-5-yl)phenyl]sulfonyl}amino)methyl]-N-(3-pyridinyl)benzamide]
IC50 (RCC4): < 1 µM
Ratio (RCC4:RCC/VHL) (RCC4/VHL): b (“b” reflects from 10 to 100)

COc1ccc(S(=O)(=O)NCc2ccc(C(=O)Nc3cccnc3)cc2)cc1OC [Example 61, 4-((3,4-Dimethoxyphenylsulfonamido)methyl)-N-(pyridin-3-yl)benzamide]
IC50 (RCC4): < 1 µM
Ratio (RCC4:RCC/VHL) (RCC4/VHL): c (“c” reflects a ratio of >100)

COc1ccc(S(=O)(=O)NCc2ccc(C(=O)Nc3cccnc3)cc2)cc1C(C)(C)C [Example 62, 4-((3-tert-Butyl-4-methoxyphenylsulfonamido)methyl)-N-(pyridin-3-yl)benzamide]
IC50 (RCC4): < 1 µM
Ratio (RCC4:RCC/VHL) (RCC4/VHL): c (“c” reflects a ratio of >100)

Cc1c(C)c(C)c(S(=O)(=O)NCc2ccc(C(=O)Nc3cccnc3)cc2)c(C)c1C [Example 63, 4-((2,3,4,5,6-Pentamethylphenylsulfonamido)methyl)-N-(pyridin-3-yl)benzamide]
IC50 (RCC4): < 1 µM
Ratio (RCC4:RCC/VHL) (RCC4/VHL): b (“b” reflects from 10 to 100)

Cc1ccc(S(=O)(=O)NCc2ccc(C(=O)Nc3cccnc3)cc2)c(C)c1 [Example 64, 4-((2,4-Dimethylphenylsulfonamido)methyl)-N-(pyridin-3-yl)benzamide]
IC50 (RCC4): 1 to 20 µM
Ratio (RCC4:RCC/VHL) (RCC4/VHL): a (“a” reflects a ratio of RCC4/RCC-VHL+ ranging from 1 to 10)

Cc1ccc(S(=O)(=O)NCc2ccc(C(=O)Nc3cccnc3)cc2)cc1C [Example 65, 4-((3,4-Dimethylphenylsulfonamido)methyl)-N-(pyridin-3-yl)benzamide]
IC50 (RCC4): < 1 µM
Ratio (RCC4:RCC/VHL) (RCC4/VHL): c (“c” reflects a ratio of >100)

Cc1cc(C)cc(S(=O)(=O)NCc2ccc(C(=O)Nc3cccnc3)cc2)c1 [Example 66, 4-((3,5-Dimethylphenylsulfonamido)methyl)-N-(pyridin-3-yl)benzamide]
IC50 (RCC4): < 1 µM
Ratio (RCC4:RCC/VHL) (RCC4/VHL): c (“c” reflects a ratio of >100)

Cc1ccc(S(=O)(=O)NCc2ccc(C(=O)Nc3cccnc3)cc2)cc1F [Example 67, 4-((3-Fluoro-4-methylphenylsulfonamido)methyl)-N-(pyridin-3-yl)benzamide]
IC50 (RCC4): < 1 µM
Ratio (RCC4:RCC/VHL) (RCC4/VHL): c (“c” reflects a ratio of >100)

Cc1ccc(S(=O)(=O)NCc2ccc(C(=O)Nc3cccnc3)cc2)cc1Cl [Example 69, 4-((3-Chloro-4-methylphenylsulfonamido)methyl)-N-(pyridin-3-yl)benzamide]
IC50 (RCC4): < 1 µM
Ratio (RCC4:RCC/VHL) (RCC4/VHL): b (“b” reflects from 10 to 100)
